Source: patent US10689363B2 (Merck Patent GmbH, priority 2017, dated 2020)
In brackets after ≈: the same amount, converted by molar mass. Read-outs that look alike come from different tables or passages of the source.

Assays:
Type in all cases: physicochemical
[1] = Water Vapour Sorption isotherm (25° C., DVS-Intrinsic), hygroscopicity acc. to Ph. Eur. 5.11.; details: for water uptake levels: 25° C.
Procedure: (based on multiple measurements on different samples of form A2). […] DSC scan of form A2 was acquired on a Mettler-Toledo DSC 821 with a heating rate of 50 K/min, using nitrogen purge gas at 50 mL/min. TGA scan of form A2 was acquired on a Mettler-Toledo TGA 851 with a heating rate of 5 K/min, using nitrogen purge gas at 50 mL/min. […] Eur. Criteria (section 5.11.). Water Vapour Sorption isotherm was acquired on a DVS-Intrinsic system from SMS.
(based on multiple measurements on different samples of form NF5). […] Eur. Criteria (section 5.11.). […] Water Vapour Sorption isotherm was acquired on a DVS-Intrinsic system from SMS.
(based on multiple measurements on one sample of form NF6). […] Eur. Criteria (section 5.11.). […] Water Vapour Sorption isotherm was acquired on a DVS-Intrinsic system from SMS.
Eur. Criteria (section 5.11.). […] Water Vapour Sorption isotherm was acquired on a DVS-Intrinsic system from SMS.
Other physical properties of form Fumarate-NF1 include the following: ^1H-NMR spectroscopic data reveal a API:Fumarate molar ratio of 1:1. […] DSC scan of form Fumarate-NF1 was acquired on a Mettler-Toledo DSC 821 with a heating rate of 5 K/min, using nitrogen purge gas at 50 mL/min. TGA scan of form Fumarate-NF1 was acquired on a Mettler-Toledo TGA 851 with a heating rate of 5 K/min, using nitrogen purge gas at 50 mL/min. […] Eur. Criteria (section 5.11.). […] Water Vapour Sorption isotherm was acquired on a DVS-Intrinsic system from SMS.
Other physical properties of form Maleate-NF1 include the following: ^1H-NMR spectroscopic data reveal a API:Maleate molar ratio of 1:1. […] DSC scan of form Maleate-NF1 was acquired on a Mettler-Toledo DSC 821 with a heating rate of 5 K/min, using nitrogen purge gas at 50 mL/min. TGA scan of form Maleate-NF1 was acquired on a Mettler-Toledo TGA 851 with a heating rate of 5 K/min, using nitrogen purge gas at 50 mL/min. […] Form Maleate-NF1 can be classified as non-hygroscopic according to Ph. Eur. Criteria (section 5.11.). […] Water Vapour Sorption isotherm was acquired on a DVS-Intrinsic system from SMS.
Other physical properties of form Citrate-NF1 include the following: ^1H-NMR spectroscopic data reveal a API:Citrate molar ratio of 1:1. […] DSC scan of form Citrate-NF1 was acquired on a Mettler-Toledo DSC 821 with a heating rate of 5 K/min, using nitrogen purge gas at 50 mL/min. TGA scan of form Citrate-NF1 was acquired on a Mettler-Toledo TGA 851 with a heating rate of 5 K/min, using nitrogen purge gas at 50 mL/min. […] Eur. Criteria (section 5.11.). […] Water Vapour Sorption isotherm was acquired on a DVS-Intrinsic system from SMS.
(based on multiple measurements on different samples of form A1). […] DSC scan of form A1 was acquired on a Mettler-Toledo DSC 821 with a heating rate of 50 K/min, using nitrogen purge gas at 50 mL/min. TGA scan of form A1 was acquired on a Mettler-Toledo TGA 851 with a heating rate of 5 K/min, using nitrogen purge gas at 50 mL/min. […] Eur. Criteria (section 5.11.). […] Water Vapour Sorption isotherm was acquired on a DVS-Intrinsic system from SMS. […] Dissolution level of form A1 in Fasted-State Simulated Intestinal Fluid [FaSSIF, pH 6.5] at 37° C. was determined to be approx. 36 μg/mL (after 2 h), and dissolution level of form A1 in Fed-State Simulated Intestinal Fluid [FeSSIF, pH 5.0] at 37° C. was determined to be approx. 214 μg/mL (after 2 h), respectively (see example 11).
All forms were characterized according to standard methods which are found in e.g. Rolf Hilfiker, ‘Polymorphism in the Pharmaceutical Industry’. Wiley-VCH. Weinheim 2006 (Chapter 6: X-Ray Diffraction. Chapter 6: Vibrational Spectroscopy. Chapter 3: Thermal Analysis, Chapter 9: Water Vapour Sorption, and references therein); and H. G. Brittain, ‘Polymorphism in Pharmaceutical Solids. Vol. 95. Marcel Dekker Inc., New York 1999 (Chapter 6 and references therein).

[2] = Mini-dissolution in FaSSIF / FeSSIF medium at 37° C.; details: for Dissolution levels in FaSSIF pH 6.5: FaSSIF pH 6.5, 37° C.; for Dissolution levels in FeSSIF pH 5.0: FeSSIF pH 5.0, 37° C.
Procedure: All dispersions were agitated at 37° C. for up to 2 hours. At defined time intervals (30 min. 60 min, 120 min), sample aliquots of homogeneous dispersions were withdrawn by a syringe, and filtrated via syringe filter adapters (PTFE, 0.45 μm).

[3] = Thermodynamic solubility (24 h, 37° C.) in FaSSIF medium or USP Phosphate buffer; details: for solubility thermodynamic at 24 h: 37 °C, thermodynamic from solid
[4] = 120 min (2 h), listed as form Malonate-NF1
[5] = 120 min (2 h), listed as form Oxalate-NF1
[6] = 120 min (2 h), listed as form Succinate-NF1

C=CC(=O)N1CCC(CNc2ncnc(N)c2-c2ccc(Oc3ccccc3)cc2)CC1.O=C(O)CCC(=O)O [Citrate-NF1, 1-(4-{[6-Amino-5-(4-phenoxy-phenyl)-pyrimidin-4-ylamino]-methyl}-piperidin-1-yl)-propenone]
hygroscopicity classification according to Ph. Eur. Criteria (section 5.11.) [1]: Slightly hygroscopic | hygroscopicity classification according to Ph. Eur. Criteria (section 5.11.) ([1]; listed as form Citrate-NF1): slightly hygroscopic | water uptake levels ([1]; relative humidity range 0-80% rh, listed as form Citrate-NF1): < 2.0 wt %

C=CC(=O)N1CCC(CNc2ncnc(N)c2-c2ccc(Oc3ccccc3)cc2)CC1.O=C(O)CCC(=O)O [Fumarate-NF1, 1-(4-{[6-Amino-5-(4-phenoxy-phenyl)-pyrimidin-4-ylamino]-methyl}-piperidin-1-yl)-propenone]
hygroscopicity classification according to Ph. Eur. Criteria (section 5.11.) [1]: Slightly hygroscopic | hygroscopicity classification according to Ph. Eur. Criteria (section 5.11.) ([1]; listed as form Fumarate-NF1): slightly hygroscopic | water uptake levels ([1]; relative humidity range 0-80% rh, listed as form Fumarate-NF1): < 0.5 wt %

C=CC(=O)N1CCC(CNc2ncnc(N)c2-c2ccc(Oc3ccccc3)cc2)CC1.O=C(O)CCC(=O)O [Maleate-NF1, 1-(4-{[6-Amino-5-(4-phenoxy-phenyl)-pyrimidin-4-ylamino]-methyl}-piperidin-1-yl)-propenone]
hygroscopicity classification according to Ph. Eur. Criteria (section 5.11.) [1]: Non-hygroscopic | hygroscopicity classification according to Ph. Eur. Criteria (section 5.11.) ([1]; listed as form Maleate-NF1): non-hygroscopic | water uptake levels ([1]; relative humidity range 0-80% rh, listed as form Maleate-NF1): < 0.5 wt %

C=CC(=O)N1CCC(CNc2ncnc(N)c2-c2ccc(Oc3ccccc3)cc2)CC1.O=C(O)CCC(=O)O [Malonate-NF1, 1-(4-{[6-Amino-5-(4-phenoxy-phenyl)-pyrimidin-4-ylamino]-methyl}-piperidin-1-yl)-propenone]
Dissolution levels in FaSSIF pH 6.5 ([2]; 30 min): 47 μg/mL | Dissolution levels in FaSSIF pH 6.5 ([2]; 60 min): 53 μg/mL | Dissolution levels in FaSSIF pH 6.5 ([2]; 120 min (2 h)): 75 μg/mL | Dissolution levels in FaSSIF pH 6.5 [2, 4]: approx. 75 μg/mL | dissolution levels (2 h), factor higher vs form A1 ([2]; FaSSIF): ~2 | Dissolution levels in FeSSIF pH 5.0 ([2]; 30 min): 651 μg/mL | Dissolution levels in FeSSIF pH 5.0 ([2]; 60 min): 694 μg/mL | Dissolution levels in FeSSIF pH 5.0 ([2]; 120 min (2 h)): 740 μg/mL | Dissolution levels in FeSSIF pH 5.0 [2, 4]: approx. 740 μg/mL | dissolution levels (2 h), factor higher vs form A1 ([2]; FeSSIF): ~3.5 | hygroscopicity classification according to Ph. Eur. Criteria (section 5.11.) [1]: Slightly hygroscopic | hygroscopicity classification according to Ph. Eur. Criteria (section 5.11.) ([1]; listed as form Malonate-NF1): slightly hygroscopic | water uptake levels ([1]; relative humidity range 0-80% rh, listed as form Malonate-NF1): < 0.5 wt %

C=CC(=O)N1CCC(CNc2ncnc(N)c2-c2ccc(Oc3ccccc3)cc2)CC1.O=C(O)CCC(=O)O [Oxalate-NF1, 1-(4-{[6-Amino-5-(4-phenoxy-phenyl)-pyrimidin-4-ylamino]-methyl}-piperidin-1-yl)-propenone]
Dissolution levels in FaSSIF pH 6.5 ([2]; 30 min): 50 μg/mL | Dissolution levels in FaSSIF pH 6.5 ([2]; 60 min): 54 μg/mL | Dissolution levels in FaSSIF pH 6.5 ([2]; 120 min (2 h)): 58 μg/mL | Dissolution levels in FaSSIF pH 6.5 [2, 5]: approx. 58 μg/mL | dissolution levels (2 h), factor higher vs form A1 ([2]; FaSSIF): ~1.5 | Dissolution levels in FeSSIF pH 5.0 ([2]; 30 min): 600 μg/mL | Dissolution levels in FeSSIF pH 5.0 ([2]; 60 min): 700 μg/mL | Dissolution levels in FeSSIF pH 5.0 ([2]; 120 min (2 h)): 740 μg/mL | Dissolution levels in FeSSIF pH 5.0 [2, 5]: approx. 740 μg/mL | dissolution levels (2 h), factor higher vs form A1 ([2]; FeSSIF): ~3.5 | hygroscopicity classification according to Ph. Eur. Criteria (section 5.11.) [1]: Slightly hygroscopic | hygroscopicity classification according to Ph. Eur. Criteria (section 5.11.) ([1]; listed as form Oxalate-NF1): slightly hygroscopic | water uptake levels ([1]; relative humidity range 0-80% rh, listed as form Oxalate-NF1): < 1.0 wt %

C=CC(=O)N1CCC(CNc2ncnc(N)c2-c2ccc(Oc3ccccc3)cc2)CC1.O=C(O)CCC(=O)O [Succinate-NF1, 1-(4-{[6-Amino-5-(4-phenoxy-phenyl)-pyrimidin-4-ylamino]-methyl}-piperidin-1-yl)-propenone]
Dissolution levels in FaSSIF pH 6.5 ([2]; 30 min): 92 μg/mL | Dissolution levels in FaSSIF pH 6.5 ([2]; 60 min): 95 μg/mL | Dissolution levels in FaSSIF pH 6.5 ([2]; 120 min (2 h)): 100 μg/mL | Dissolution levels in FaSSIF pH 6.5 [2, 6]: approx. 100 μg/mL | dissolution levels (2 h), factor higher vs form A1 ([2]; FaSSIF): ~3 | Dissolution levels in FeSSIF pH 5.0 ([2]; 30 min): 625 μg/mL | Dissolution levels in FeSSIF pH 5.0 ([2]; 60 min): 708 μg/mL | Dissolution levels in FeSSIF pH 5.0 ([2]; 120 min (2 h)): 743 μg/mL | Dissolution levels in FeSSIF pH 5.0 [2, 6]: approx. 743 μg/mL | dissolution levels (2 h), factor higher vs form A1 ([2]; FeSSIF): ~3.5 | hygroscopicity classification according to Ph. Eur. Criteria (section 5.11.) [1]: Slightly hygroscopic | hygroscopicity classification according to Ph. Eur. Criteria (section 5.11.) ([1]; listed as form Succinate-NF1): slightly hygroscopic | water uptake levels ([1]; relative humidity range 0-80% rh, listed as form Succinate-NF1): ≤ 2.0 wt %

C=CC(=O)N1CCC(CNc2ncnc(N)c2-c2ccc(Oc3ccccc3)cc2)CC1 [form A2, 1-(4-{[6-Amino-5-(4-phenoxy-phenyl)-pyrimidin-4-ylamino]-methyl}-piperidin-1-yl)-propenone]
hygroscopicity classification according to Ph. Eur. Criteria (section 5.11.) [1]: slightly hygroscopic | hygroscopicity classification according to Ph. Eur. Criteria (section 5.11.) ([1]; listed as A2): Slightly hygroscopic | water uptake levels ([1]; relative humidity range 0-98% rh): ≤ 1 wt % | water uptake levels ([1]; relative humidity range 90-98% rh): ≤ 2 wt % | thermodynamic solubility compared to form A1 (in words) [3]: higher | thermodynamic solubility, factor higher vs form A1 ([3]; FaSSIF): ~1.5 | solubility thermodynamic at 24 h ([3]; FaSSIF medium, pH 6.5, fassif, FaSSIF pH 6.5, 37° C., read-out: Thermodynamic solubility FaSSIF pH 6.5): ~33 µg/mL (≈ 76.8 µM) | thermodynamic solubility, factor higher vs form A1 ([3]; PBS buffer pH 7.4): ~2 | solubility thermodynamic at 24 h ([3]; USP phosphate buffer, pH 7.4, aqueous buffer, USP Phosphate buffer pH 7.4, 37° C., read-out: Thermodynamic solubility PBS buffer 7.4): ~27 µg/mL (≈ 62.9 µM)
